From PubChem BioAssay AID651874 (Southern Research Specialized Biocontainment Screening …, 2012)
pIC50: −log10 of the molar value.

Tested on: VEEV TrD infected cells, viral cytopathic effect inhibition
Test: VEEV TrD cytopathic effect inhibition, confirmation, cell-based, Trinidad donkey strain, set 2 (AID 651874)

Compound | pIC50
CN1CCN(C)C(=Nc2ccc(C#N)cc2C(=O)Nc2cccc(F)c2)C1 | 6.08
CN1CCN(C)C(=Nc2ccc([N+](=O)[O-])cc2C(=O)Nc2ccccc2)C1 | 7.40
CCN1CCN(Cc2nc3ccc(C#N)cc3c(=O)n2-c2ccccc2)CC1 | 5.96
COc1ccc(NC(=O)c2cc([N+](=O)[O-])ccc2N=C2CN(C)CCN2C)cc1 | 7.35
CCN1CCN(Cc2nc3ncc([N+](=O)[O-])cc3c(=O)n2-c2ccccc2)CC1 | 5.51
CCN1CCN(Cc2nc3ccc([N+](=O)[O-])cc3c(=O)n2-c2ccccc2)CC1 | 6.62
O=c1c2cc([N+](=O)[O-])ccc2nc(CN2CCNCC2)n1-c1ccccc1F | 6.83
CN1CCN(C)C(=Nc2ccc([N+](=O)[O-])cc2C(=O)Nc2ccccc2F)C1 | 6.80
O=c1c2cc([N+](=O)[O-])ccc2nc(CN2CCNCC2)n1-c1ccccc1 | 7.07
CCN1CCN(Cc2nc3ccc([N+](=O)[O-])cc3c(=O)n2-c2ccccc2F)CC1 | 6.25
CN1CCN(C)C(=Nc2cc(Cl)c(C#N)cc2C(=O)Nc2ccccc2)C1 | 6.95
COc1cccc(-n2c(CN3CCNCC3)nc3ccc([N+](=O)[O-])cc3c2=O)c1 | 5.25
CNCCCN(C)Cc1nc2ccc([N+](=O)[O-])cc2c(=O)n1-c1ccccc1 | 6.39
CN1CCN(C)C(=Nc2ccc(C#N)cc2C(=O)Nc2ccccc2)C1 | 6.50
CCN1CCN(Cc2nc3ccc([N+](=O)[O-])cc3c(=O)n2-c2cccc(F)c2)CC1 | 6.56
O=c1c2cc([N+](=O)[O-])ccc2nc(CN2CCNCC2)n1-c1ccsc1 | 6.04
CCN1CCN(Cc2nc3ccc([N+](=O)[O-])cc3c(=O)n2-c2ccc(F)cc2)CC1 | 6.22
CCN1CCN(C)CC1=Nc1ccc([N+](=O)[O-])cc1C(=O)Nc1ccccc1 | 7.47
COc1ccc(-n2c(CN3CCNCC3)nc3ccc([N+](=O)[O-])cc3c2=O)cc1 | 7.02
CN1CCN(Cc2nc3ccc([N+](=O)[O-])cc3c(=O)n2-c2ccccc2F)CC1 | 6.86
